Laboratory results as given in ChEMBL document CHEMBL5505999, “Discovery of anti-inflammatory agents from 3, 4-dihydronaphthalene-1(2H)-one derivatives by inhibiting NLRP3 inflammasome activation” (Eur J Med Chem, 2024).
The source made the active and inactive calls. The calls are words filed in the database; no cut-off is given here.

Experiments:
RAW264.7 [1] = experiment: Anti-inflammatory activity in mouse RAW264.7 cells assessed as inhibition of LPS-induced IL-18 production pretreated with compound for 2 hrs followed by LPS addition for 22 hrs and measured 30 mins after LPS addition by ELISA; assay type: functional, cell-based; conditions: dose 1.5-6 µM, time 24.5 hrs
[2] = Cytotoxicity against mouse RAW264.7 cells assessed as survival rate at 2.5 uM incubated overnight by CCK-8 assay relative to control; assay type: toxicity, cell-based; conditions: read-out: Survival
RAW264.7 [3] = experiment: Anti-inflammatory activity in mouse RAW264.7 cells assessed as inhibition of LPS-induced TNF-alpha production at 2.5 uM pretreated with compound for 2 hrs followed by LPS addition and measured after 22 hrs by ELISA relative to control; assay type: functional; conditions: time 24 hrs
RAW264.7 [4] = experiment: Anti-inflammatory activity in mouse RAW264.7 cells assessed as inhibition of LPS-induced IL-6 production at 2.5 uM pretreated with compound for 2 hrs followed by LPS addition and measured after 22 hrs by ELISA relative to control; assay type: functional; conditions: time 24 hrs
RAW264.7 [5] = experiment: Anti-inflammatory activity in mouse RAW264.7 cells assessed as inhibition of LPS-induced TNF-alpha production pretreated with compound for 2 hrs followed by LPS addition and measured after 22 hrs by ELISA; assay type: functional, cell-based; conditions: dose 1.5-6 µM, time 24.0 hrs
RAW264.7 [6] = experiment: Anti-inflammatory activity in mouse RAW264.7 cells assessed as inhibition of LPS-induced IL-6 production pretreated with compound for 2 hrs followed by LPS addition and measured after 22 hrs by ELISA; assay type: functional, cell-based; conditions: dose 1.5-6 µM, time 24.0 hrs
RAW264.7 [7] = experiment: Anti-inflammatory activity in mouse RAW264.7 cells assessed as inhibition of LPS-induced IL-1beta production pretreated with compound for 2 hrs followed by LPS addition for 22 hrs and measured 30 mins after LPS addition by ELISA; assay type: functional, cell-based; conditions: dose 1.5-6 µM, time 24.5 hrs
[8] = biological target: NACHT, LRR and PYD domains-containing protein 3 (Mus musculus) (UniProt Q8R4B8); experiment: Inhibition of NLRP3 inflammasome activation in LPS-induced mouse RAW264.7 cells assessed as reduction in ROS production by measuring intracellular ROS level at 1.5 uM incubated for 24 hrs by DCFH-DA staining based flow cytometric analysis (reference value: 42.0%); assay type: cell-based; set-up: scale not given: the % may be the effect or the level left
Sequence of NACHT, LRR and PYD domains-containing protein 3 (Mus musculus) (Q8R4B8 whole entry, the tested form may be a part): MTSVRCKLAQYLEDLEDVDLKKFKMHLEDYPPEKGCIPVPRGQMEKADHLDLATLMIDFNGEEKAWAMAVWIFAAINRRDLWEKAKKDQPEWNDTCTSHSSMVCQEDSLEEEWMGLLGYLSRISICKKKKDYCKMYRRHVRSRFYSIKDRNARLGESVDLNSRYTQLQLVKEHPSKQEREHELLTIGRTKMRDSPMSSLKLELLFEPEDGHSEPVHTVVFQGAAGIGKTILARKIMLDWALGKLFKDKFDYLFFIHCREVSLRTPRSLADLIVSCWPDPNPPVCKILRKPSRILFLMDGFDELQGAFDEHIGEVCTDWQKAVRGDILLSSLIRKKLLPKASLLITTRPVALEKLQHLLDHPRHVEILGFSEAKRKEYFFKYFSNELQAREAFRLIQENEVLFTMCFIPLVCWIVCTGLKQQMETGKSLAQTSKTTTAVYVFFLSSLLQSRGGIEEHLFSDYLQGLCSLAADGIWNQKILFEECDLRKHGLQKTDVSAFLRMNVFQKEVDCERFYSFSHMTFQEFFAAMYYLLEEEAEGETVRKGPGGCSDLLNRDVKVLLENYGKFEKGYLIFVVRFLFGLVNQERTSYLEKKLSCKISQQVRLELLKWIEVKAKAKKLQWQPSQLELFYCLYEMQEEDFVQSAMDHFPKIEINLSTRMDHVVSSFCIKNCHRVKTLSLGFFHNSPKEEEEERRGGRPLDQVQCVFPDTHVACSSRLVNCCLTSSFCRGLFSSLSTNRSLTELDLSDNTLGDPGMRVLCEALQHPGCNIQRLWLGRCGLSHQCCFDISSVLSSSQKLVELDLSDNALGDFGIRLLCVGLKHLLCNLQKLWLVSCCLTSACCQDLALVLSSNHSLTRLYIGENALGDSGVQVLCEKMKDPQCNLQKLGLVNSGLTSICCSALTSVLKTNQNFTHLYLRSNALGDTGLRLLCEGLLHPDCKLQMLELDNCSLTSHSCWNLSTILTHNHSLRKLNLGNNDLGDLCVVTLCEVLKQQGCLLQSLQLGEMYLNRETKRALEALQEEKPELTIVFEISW

[9] = biological target: NACHT, LRR and PYD domains-containing protein 3 (Mus musculus) (UniProt Q8R4B8); experiment: Inhibition of NLRP3 inflammasome activation in LPS-induced mouse RAW264.7 cells assessed as reduction in ROS production by measuring intracellular ROS level at 3.0 uM incubated for 24 hrs by DCFH-DA staining based flow cytometric analysis (reference value: 42.0%); assay type: cell-based; set-up: scale not given: the % may be the effect or the level left
[10] = biological target: NACHT, LRR and PYD domains-containing protein 3 (Mus musculus) (UniProt Q8R4B8); experiment: Inhibition of NLRP3 inflammasome activation in LPS-induced mouse RAW264.7 cells assessed as reduction in ROS production by measuring intracellular ROS level at 6.0 uM incubated for 24 hrs by DCFH-DA staining based flow cytometric analysis (reference value: 42.0%); assay type: cell-based; set-up: scale not given: the % may be the effect or the level left
[11] = biological target: NACHT, LRR and PYD domains-containing protein 3 (Mus musculus) (UniProt Q8R4B8); experiment: Inhibition of NLRP3 inflammasome activation in LPS-induced mouse RAW264.7 cells assessed as reduction in NO production incubated for 24 hrs by Griess reagent based assay; assay type: cell-based; conditions: dose 1.5-6 µM
[12] = Induction of apoptosis in mouse RAW264.7 cells assessed as viable cells at 1.5 uM by Annexin V-FITC/PI staining based flow cytometric analysis (reference value: 96.4%); assay type: toxicity, cell-based; conditions: read-out: Activity
RAW264.7 [13] = experiment: Induction of apoptosis in mouse RAW264.7 cells assessed as apoptotic cells at 1.5 uM by Annexin V-FITC/PI staining based flow cytometric analysis (reference value: 1.9%); assay type: toxicity, cell-based; conditions: raw264.7, 1.5 µM
[14] = Induction of apoptosis in mouse RAW264.7 cells assessed as viable cells at 3.0 uM by Annexin V-FITC/PI staining based flow cytometric analysis (reference value: 96.4%); assay type: toxicity, cell-based; conditions: read-out: Activity
RAW264.7 [15] = experiment: Induction of apoptosis in mouse RAW264.7 cells assessed as apoptotic cells at 3.0 uM by Annexin V-FITC/PI staining based flow cytometric analysis (reference value: 1.9%); assay type: toxicity, cell-based; conditions: raw264.7, 3 µM
[16] = Induction of apoptosis in mouse RAW264.7 cells assessed as viable cells at 6.0 uM by Annexin V-FITC/PI staining based flow cytometric analysis (reference value: 96.4%); assay type: toxicity, cell-based; conditions: read-out: Activity
RAW264.7 [17] = experiment: Induction of apoptosis in mouse RAW264.7 cells assessed as apoptotic cells at 6.0 uM by Annexin V-FITC/PI staining based flow cytometric analysis (reference value: 1.9%); assay type: toxicity, cell-based; conditions: raw264.7, 6 µM
[18] = biological target: Transcription factor p65 (Mus musculus) (UniProt Q04207); experiment: Inhibition of NF-kappaB p65 nuclear translocation in LPS-induced mouse RAW264.7 cells assessed as increase in p65 subunits in cytoplasm at 6.0 uM preincubated with compound for 2 hrs followed by LPS addition and measured after 2 hrs by DAPI staining based Zeiss laser confocal microscopic analysis; assay type: cell-based; conditions: time 4.0 hrs
Sequence of Transcription factor p65 (Mus musculus) (Q04207 whole entry): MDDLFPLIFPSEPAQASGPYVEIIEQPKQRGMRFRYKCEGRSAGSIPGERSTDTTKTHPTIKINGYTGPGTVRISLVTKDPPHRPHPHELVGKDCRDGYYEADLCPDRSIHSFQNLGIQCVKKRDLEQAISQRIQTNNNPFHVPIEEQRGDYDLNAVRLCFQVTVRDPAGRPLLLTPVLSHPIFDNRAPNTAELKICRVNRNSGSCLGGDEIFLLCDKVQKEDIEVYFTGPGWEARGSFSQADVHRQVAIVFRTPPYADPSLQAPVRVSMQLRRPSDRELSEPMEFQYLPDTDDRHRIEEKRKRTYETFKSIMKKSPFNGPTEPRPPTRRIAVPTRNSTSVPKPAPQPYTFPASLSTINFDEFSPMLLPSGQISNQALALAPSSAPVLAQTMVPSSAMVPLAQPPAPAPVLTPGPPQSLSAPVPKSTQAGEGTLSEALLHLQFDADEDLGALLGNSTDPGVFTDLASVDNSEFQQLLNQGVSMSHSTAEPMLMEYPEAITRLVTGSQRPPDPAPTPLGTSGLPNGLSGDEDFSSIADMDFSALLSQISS

RAW264.7 [19] = experiment: Inhibition of NF-kappaB signaling pathway in mouse RAW264.7 cells assessed as reduction in p65 phosphorylation preincubated with compound for 2 hrs followed by LPS addition and measured after 22 hrs by Western blot analysis; assay type: cell-based; conditions: dose 1.5-6 µM, time 24.0 hrs
RAW264.7 [20] = experiment: Inhibition of NF-kappaB signaling pathway in mouse RAW264.7 cells assessed as reduction in IkappaBalpha phosphorylation preincubated with compound for 2 hrs followed by LPS addition and measured after 22 hrs by Western blot analysis; assay type: cell-based; conditions: dose 1.5-6 µM, time 24.0 hrs
[21] = biological target: NACHT, LRR and PYD domains-containing protein 3 (Mus musculus) (UniProt Q8R4B8); experiment: Inhibition of NLRP3 inflammasome activation in mouse RAW264.7 cells assessed as reduction in NLRP3 expression at 1.5 to 6.0 uM preincubated with compound for 2 hrs followed by LPS addition and measured after 30 mins by Western blot analysis; assay type: cell-based; conditions: dose 1.5-6 µM, time 2.5 hrs
[22] = biological target: NACHT, LRR and PYD domains-containing protein 3 (Mus musculus) (UniProt Q8R4B8); experiment: Inhibition of NLRP3 inflammasome activation in mouse RAW264.7 cells assessed as reduction in ASC expression at 1.5 to 6.0 uM preincubated with compound for 2 hrs followed by LPS addition and measured after 30 mins by Western blot analysis; assay type: cell-based; conditions: dose 1.5-6 µM, time 2.5 hrs

Question: For `CN1CCN(c2ccc(/C=C3\CCc4ccc(Br)cc4C3=O)nc2)CC1`, which Activity (RAW264.7 [1]) is on record?
Answer: The Activity was “Dose-Dependent Effect”.

Question: And the viability at 2.5 µM [2]?
Answer: Its viability at 2.5 µM is 108%.

Question: And the inhibition at 2.5 µM (RAW264.7 [3])?
Answer: The inhibition at 2.5 µM was 81.4%.

Question: What about the inhibition at 2.5 µM (RAW264.7 [4]) of the same molecule?
Answer: Its inhibition at 2.5 µM is 69.2%.

Question: What about the Activity (RAW264.7 [5]) of the same molecule?
Answer: Its Activity is “Dose-Dependent Effect”.

Question: What about the Activity (RAW264.7 [6]) of the same molecule?
Answer: Its Activity is “Dose-Dependent Effect”.

Question: What about the Activity (RAW264.7 [7]) of the same molecule?
Answer: Its Activity is “Dose-Dependent Effect”.

Question: And the Activity [8]?
Answer: Its Activity is 36.4%.

Question: And the Activity [9]?
Answer: Its Activity is 31.8%.

Question: And the Activity [10]?
Answer: The Activity was 19.9%.

Question: And the inhibition [11]?
Answer: The inhibition was “Dose-Dependent Effect”.

Question: What about the viability at 1.5 µM [12] of the same molecule?
Answer: Its viability at 1.5 µM is 94.4%.

Question: What about the Activity (RAW264.7 [13]) of the same molecule?
Answer: Its Activity is 3.8%.

Question: What about the viability at 3 µM [14] of the same molecule?
Answer: Its viability at 3 µM is 92.8%.

Question: What about the Activity (RAW264.7 [15]) of the same molecule?
Answer: The Activity was 5.6%.

Question: And the viability at 6 µM [16]?
Answer: Its viability at 6 µM is 91.6%.

Question: What about the Activity (RAW264.7 [17]) of the same molecule?
Answer: The Activity was 6.8%.

Question: And the inhibition [18]?
Answer: The inhibition was “Active”.

Question: What about the inhibition (RAW264.7 [19]) of the same molecule?
Answer: The inhibition was “Dose-Dependent Effect”.

Question: And the inhibition (RAW264.7 [20])?
Answer: The inhibition was “Dose-Dependent Effect”.

Question: What about the inhibition [21] of the same molecule?
Answer: The inhibition was “Active”.

Question: What about the inhibition [22] of the same molecule?
Answer: Its inhibition is “Active”.
